Literature values, collected in patent publication US20130171093A1, “HEALING POWDER AND METHOD OF USE THEREOF” (priority 2006, published 2013).

Assays:
[1] = test system: full thickness wounds in the backs of pigs; details: clean, non-infected pig wounds under Opsite
[2] = test system: acute mediastinitis wounds; details: 19 patients, wounds packed every 3 to 4 hours

Row | Structure (SMILES) | wound healing / granulation tissue formation versus wounds covered with Opsite alone [1] | debridement of the wound [2] | eradication of bacterial infection, average time of treatment [2] [days]
1 | N=C(NCCCCCCNC(=N)NC(=N)Nc1ccc(Cl)cc1)NC(=N)Nc1ccc(Cl)cc1.O=C(O)[C@H](O)[C@@H](O)[C@H](O)[C@H](O)CO.O=C(O)[C@H](O)[C@@H](O)[C@H](O)[C@H](O)CO [chlorhexidine gluconate 0.2%, chlorhexidine gluconate] | delayed healing | – | –
2 | OC[C@H]1O[C@@](CO)(O[C@H]2O[C@H](CO)[C@@H](O)[C@H](O)[C@H]2O)[C@@H](O)[C@@H]1O [granular sugar, sucrose] | – | near complete debridement | 7.6
